Target: T1, PfUBA1 (ubiquitin activating enzyme, E1; PF3D7_1225800) (Plasmodium falciparum, UniProt Q8I5F9)
T1 construct: Thr39 to Lys1140, N-terminal His10-tag, insect cells; with ubiquitin (Cy5-labelled, M1C)
Assay: Cy5-ubiquitin~E1 thioesterification gel assay with recombinant PfUBA1
Assay type: biochemical

T1 sequence (Q8I5F9 entry or part of it): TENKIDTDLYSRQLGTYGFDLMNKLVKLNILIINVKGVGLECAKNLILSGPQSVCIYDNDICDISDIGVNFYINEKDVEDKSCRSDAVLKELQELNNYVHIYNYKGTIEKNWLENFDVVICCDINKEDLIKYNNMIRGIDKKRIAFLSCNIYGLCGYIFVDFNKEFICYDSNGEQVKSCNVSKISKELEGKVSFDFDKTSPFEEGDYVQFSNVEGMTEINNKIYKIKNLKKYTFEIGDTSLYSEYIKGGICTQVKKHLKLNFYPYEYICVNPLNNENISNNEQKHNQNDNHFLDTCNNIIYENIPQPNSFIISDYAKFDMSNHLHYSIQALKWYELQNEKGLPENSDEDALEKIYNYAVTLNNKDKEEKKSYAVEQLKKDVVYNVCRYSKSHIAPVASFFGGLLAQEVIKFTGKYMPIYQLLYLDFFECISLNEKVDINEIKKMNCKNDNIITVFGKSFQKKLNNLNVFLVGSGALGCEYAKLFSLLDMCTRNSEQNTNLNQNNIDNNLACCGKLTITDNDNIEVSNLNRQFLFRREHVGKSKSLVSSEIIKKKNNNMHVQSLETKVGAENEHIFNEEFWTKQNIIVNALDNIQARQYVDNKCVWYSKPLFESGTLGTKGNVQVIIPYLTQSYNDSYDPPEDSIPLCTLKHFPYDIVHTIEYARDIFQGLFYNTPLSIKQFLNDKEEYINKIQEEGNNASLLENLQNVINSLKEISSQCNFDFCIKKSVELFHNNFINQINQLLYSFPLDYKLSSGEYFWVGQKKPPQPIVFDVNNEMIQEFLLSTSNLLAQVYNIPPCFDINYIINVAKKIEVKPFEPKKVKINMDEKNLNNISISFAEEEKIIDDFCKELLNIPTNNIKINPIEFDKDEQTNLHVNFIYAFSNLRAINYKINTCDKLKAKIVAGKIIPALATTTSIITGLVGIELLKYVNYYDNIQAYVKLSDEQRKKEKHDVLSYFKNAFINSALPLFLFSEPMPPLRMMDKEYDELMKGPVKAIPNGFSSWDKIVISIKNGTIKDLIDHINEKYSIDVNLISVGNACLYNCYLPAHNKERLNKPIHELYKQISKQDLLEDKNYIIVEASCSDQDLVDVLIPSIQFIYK

SMILES | IC50 [µM]
NS(=O)(=O)OC[C@H]1C[C@@H](Nc2ccnc3cc(-c4cccc(SC(F)(F)F)c4)nn23)[C@H](O)[C@@H]1O [MLN7243] | 1.4 ± 0.2
NS(=O)(=O)OC[C@@H]1C[C@@H](n2ccc3c(N[C@H]4CCc5ccccc54)ncnc32)C[C@@H]1O [MLN4924] | 47 ± 5
